# Measurements published in patent publication US8268848B2, “Cyclopropane compound” (Eisai R&D Management Co., Ltd., priority 2010, dated 2012).
# Where two headings read alike, the source gives them in different places.
# Assays:
# OX1 [1] = molecular target: T1, OX1 (Homo sapiens, UniProt O43613); experiment: Measurement of orexin receptor-binding ability ([125I]-OX-A, cell membranes, OX1); set-up: expressed in transfected cells; host or cells: CHO cells (membrane preparation)
# T1 sequence (O43613 1-425): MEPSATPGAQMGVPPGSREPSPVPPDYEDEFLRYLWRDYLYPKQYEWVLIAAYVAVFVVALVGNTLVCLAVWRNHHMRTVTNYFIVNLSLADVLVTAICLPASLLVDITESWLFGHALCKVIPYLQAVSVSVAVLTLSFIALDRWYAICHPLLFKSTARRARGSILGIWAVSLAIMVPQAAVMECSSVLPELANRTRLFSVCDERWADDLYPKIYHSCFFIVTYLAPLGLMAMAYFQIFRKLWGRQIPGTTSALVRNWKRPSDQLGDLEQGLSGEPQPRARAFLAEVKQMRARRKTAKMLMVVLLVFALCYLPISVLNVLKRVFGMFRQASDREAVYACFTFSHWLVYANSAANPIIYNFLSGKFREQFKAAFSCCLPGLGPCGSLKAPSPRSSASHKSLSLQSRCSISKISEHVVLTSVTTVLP
# OX2 [2] = molecular target: T2, OX2 (Homo sapiens, UniProt O43614); experiment: Measurement of orexin receptor-binding ability ([125I]-OX-A, cell membranes, OX2); set-up: expressed in transfected cells; host or cells: CHO cells (membrane preparation); conditions: membranes of recombinant CHO cells expressing OX2, 0.2 nM [125I]-OX-A
# T2 sequence (O43614 1-444): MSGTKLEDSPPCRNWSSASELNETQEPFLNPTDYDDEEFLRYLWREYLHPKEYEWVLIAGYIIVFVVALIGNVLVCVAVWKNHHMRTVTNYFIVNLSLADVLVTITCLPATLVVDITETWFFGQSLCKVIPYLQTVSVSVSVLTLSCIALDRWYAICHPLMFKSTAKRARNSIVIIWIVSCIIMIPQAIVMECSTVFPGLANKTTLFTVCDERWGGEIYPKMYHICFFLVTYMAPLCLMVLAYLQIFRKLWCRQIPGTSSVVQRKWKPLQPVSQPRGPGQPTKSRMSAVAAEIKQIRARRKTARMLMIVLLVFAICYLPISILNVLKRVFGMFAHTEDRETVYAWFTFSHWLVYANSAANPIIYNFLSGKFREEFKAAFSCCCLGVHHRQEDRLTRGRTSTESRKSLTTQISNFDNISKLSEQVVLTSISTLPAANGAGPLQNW
# mice (C57BL/6NCrlCrLj) = experiment: Sleep experiment (EEG/EMG) in mice; assay type: in vivo; conditions: for minimum effective dose (MED): oral, doses 0.3 to 100 mg/kg, accumulated sleep time within three hours after administration
# Protocol: As a method for measuring the influence of the present compound on sleep time, electroencephalogram (EEG) and electromyogram (EMG) measurements were carried out in mice (C57BL/6NCrlCrLj).
# In order to measure brain waves and muscle signals, EEG and EMG electrode implantation was performed on individual mice, and the mice were then housed in a state in which they could freely move and habituate in individual recording cages for 1 week or longer. Thereafter, amplified EEG and EMG signals were digitally recorded.
# Mice received either oral administration of vehicle or test compound in vehicle, after which sleep/wake behavior of mice was recorded for 3 hours.
# For sleep analysis, automatic analysis software from Kissei Comtec Co., Ltd. was used to analyze EEG frequency and EMG activity signals in detail and to determine sleep and wake states. Thereafter, accumulated sleeping time over 3 hours was calculated.
# The effect of the compound to increase sleep time was evaluated as the difference between sleeping time on the vehicle-administration day and the sleep time on the subsequent drug-administration day.
# The minimum effective dose (MED; mg/kg) was obtained from accumulated sleep time of mice with three hours after the administration.
# OX1 [3] = molecular target: T1, OX1; experiment: Measurement of antagonism (PLAP assay), OX1; assay type: cell-based; set-up: expressed in transfected cells; host or cells: HEK-293 cells, expression vector pBabeCLIH
# Protocol: (§1) 2. Measurement of Antagonism (PLAP Assay)
# (§2) The antagonistic function of the compound of the present invention to prevent the activation of OX2 and OX1 by orexin-A (OX-A), which is a natural peptide agonist, was measured using a cell-based reporter assay. […] The cells were plated at a density of 10,000 cells/well onto a non-coated 96-well plate in Dulbecco's modified Eagle medium (Sigma Cat No. D6046:10% v/v heat-inactivated fetal bovine serum was contained). The cells were cultured at 37° C. overnight, so that they could adhere to the plate. On the following day, cells were incubated with a compound of the present invention dissolved in Dulbecco's modified Eagle medium (Sigma Cat No. A8806:0.1% w/v bovine serum albumin was contained), and added to the cell plate to reach a final concentration of 0.1% dimethyl sulfoxide.
# (§3) The thus obtained mixture was incubated at room temperature for 1 hour. Thereafter, human OX-A and forskolin were dissolved in the same medium as described above, which contained fetal bovine serum albumin, and the medium was then added to the cells, resulting in a final concentration of 300 nM forskolin. Subsequently, the cells were cultured at 37° C. for approximately 18 to 24 hours.
# OX2 [4] = molecular target: T2, OX2; experiment: Measurement of antagonism (PLAP assay), OX2; assay type: cell-based; set-up: expressed in transfected cells; host or cells: HEK-293 cells, expression vector pBabeCLIH
# Protocol: as §1, §2, §3
# [5] = mice, oral administration, difference to vehicle day, 3 hours
# [6] = HEK-293 cells expressing human OX1, 1 nM human OX-A, IC50 converted by Cheng-Prusoff equation, read-out: OX1 (Ki)
# [7] = membranes of recombinant CHO cells expressing OX1, 0.2 nM [125I]-OX-A, read-out: OX1 (IC50)
# [8] = HEK-293 cells expressing human OX2, 1 nM human OX-A, IC50 converted by Cheng-Prusoff equation, read-out: OX2 (Ki)
Structure (SMILES),IC50 (OX1 [1]),IC50 (OX2 [2]; OX2 (IC50) nM),Sleep extended time 10 mg/kg (min/3 hrs) (mice (C57BL/6NCrlCrLj); [5]),Ki (OX1 [3]; [6]),Ki (OX2 [4]),minimum effective dose (MED) (mice (C57BL/6NCrlCrLj); mice),Ki (OX1 [3]),IC50 (OX1 [1]; [7]),IC50 (OX2 [2]; read-out: OX2 (IC50)),"Sleep extended time 10 mg/kg (min/3 hrs) (mice (C57BL/6NCrlCrLj); po, 3 h)",Ki (OX2 [4]; [8])
"Cc1ncc(OC[C@@]2(c3cccc(F)c3)C[C@H]2C(=O)Nc2cc(C)c(F)cn2)c(C)n1 [Example 82, (1R,2S)-2-{[(2,4-dimethylpyrimidin-5-yl)oxy]methyl}-N-(5-fluoro-4-methylpyridin-2-yl)-2-(3-fluorophenyl)cyclopropanecarboxamide]",2.4 nM,3.7 nM,33.5 min/3 hrs,0.96 nM,0.085 nM,–,–,–,–,–,–
"CCc1nc(C)ncc1OC[C@@]1(c2cccc(F)c2)C[C@H]1C(=O)Nc1ccccn1 [Example 240, (1R,2S)-2-{[(4-ethyl-2-methylpyrimidin-5-yl)oxy]methyl}-2-(3-fluorophenyl)-N-(pyridin-2-yl)cyclopropanecarboxamide]",8.7 nM,2.9 nM,7.7 min/3 hrs,–,0.91 nM,10 mg/kg,18 nM,–,–,–,–
"Cc1ncc(OC[C@@]2(c3cc(F)cc(F)c3)C[C@H]2C(=O)Nc2cc(C)c(F)cn2)c(C)n1 [Example 129, (1R,2S)-2-(3,5-difluorophenyl)-2-{[(2,4-dimethylpyrimidin-5-yl)oxy]methyl}-N-(5-fluoro-4-methylpyridin-2-yl)cyclopropanecarboxamide]",–,–,–,0.97 nM,–,–,–,1 nM,1.5 nM,30.0 min/3 hrs,0.06 nM
"CCc1nc(C)ncc1OC[C@@]1(c2ccccc2)C[C@H]1C(=O)Nc1ccc(F)cn1 [Example 119, (1R,2S)-2-{[(4-ethyl-2-methylpyrimidin-5-yl)oxy]methyl}-N-(5-fluoropyridin-2-yl)-2-phenylcyclopropanecarboxamide]",21 nM,5.2 nM,16.0 min/3 hrs,21 nM,–,–,–,–,–,–,0.6 nM
Cc1ncc(OC[C@@]2(c3ccccc3F)C[C@H]2C(=O)Nc2ccc(F)cn2)c(C)n1 [Example 263],82 nM,17 nM,27.3 min/3 hrs,–,8.6 nM,–,193 nM,–,–,–,–
"Cc1ncc(OC[C@@]2(c3ccc(F)c(F)c3)C[C@H]2C(=O)Nc2cc(C)c(F)cn2)c(C)n1 [Example 164, (1R,2S)-2-(3,4-difluorophenyl)-2-{[(2,4-dimethylpyrimidin-5-yl)oxy]methyl}-N-(5-fluoro-4-methylpyridin-2-yl)cyclopropanecarboxamide]",–,–,–,0.93 nM,–,–,–,3 nM,6 nM,48.4 min/3 hrs,0.087 nM
"CCc1nc(C)ncc1OC[C@@]1(c2ccccc2)C[C@H]1C(=O)Nc1ccc(C#N)cn1 [Example 120, (1R,2S)-N-(5-cyanopyridin-2-yl)-2-{[(4-ethyl-2-methylpyrimidin-5-yl)oxy]methyl}-2-phenylcyclopropanecarboxamide]",–,–,–,273 nM,–,–,–,123 nM,7 nM,11.5 min/3 hrs,5.7 nM
"Cc1ncc(OC[C@@]2(c3ccc(F)cc3)C[C@H]2C(=O)Nc2ccc(F)cn2)c(C)n1 [Example 100, (1R,2S)-2-{[(2,4-dimethylpyrimidin-5-yl)oxy]methyl}-2-(4-fluorophenyl)-N-(5-fluoropyridin-2-yl)cyclopropanecarboxamide]",40 nM,7.6 nM,23.8 min/3 hrs,147 nM,–,–,–,–,–,–,9.4 nM
"CCc1nc(C)ncc1OC[C@@]1(c2ccccc2)C[C@H]1C(=O)Nc1ccc(Cl)cn1 [Example 121, (1R,2S)-N-(5-chloropyridin-2-yl)-2-{[(4-ethyl-2-methylpyrimidin-5-yl)oxy]methyl}-2-phenylcyclopropanecarboxamide]",–,–,–,26 nM,–,–,–,10 nM,3.1 nM,26.7 min/3 hrs,0.3 nM
"Cc1ncc(OC[C@@]2(c3ccccc3)C[C@H]2C(=O)Nc2ccc(F)c(C#N)c2)c(C)n1 [Example 26, (1R,2S)-N-(3-cyano-4-fluorophenyl)-2-{[(2,4-dimethylpyrimidin-5-yl)oxy]methyl}-2-phenylcyclopropanecarboxamide]",–,–,–,27 nM,–,–,–,20 nM,3.7 nM,–,0.4 nM
Cc1ncc(OC[C@@]2(c3ccccc3)C[C@H]2C(=O)Nc2ccccc2)c(C)n1 [Example 64],–,–,–,133 nM,–,–,–,74 nM,15 nM,–,6.3 nM
"Cc1ncc(OC[C@@]2(c3ccccc3)C[C@H]2C(=O)Nc2ccc(F)cn2)c(C)n1 [Example 1, (1R,2S)-2-{[(2,4-dimethylpyrimidin-5-yl)oxy]methyl}-N-(5-fluoropyridin-2-yl)-2-phenylcyclopropanecarboxamide]",–,6.8 nM,18.3 min/3 hrs,157 nM,10 nM,30 mg/kg,–,139 nM,–,–,–
Cc1ncc(OC[C@@]2(c3ccccc3)C[C@H]2C(=O)Nc2ccncc2)c(C)n1 [Example 67],–,–,–,–,57 nM,–,> 667 nM,–,–,–,–
"COCc1nc(C)ncc1OC[C@@]1(c2ccccc2)C[C@H]1C(=O)Nc1ccc(Cl)cn1 [Example 139, (1R,2S)-N-(5-chloropyridin-2-yl)-2-{[(4-(methoxymethyl)-2-methylpyrimidin-5-yl)oxy]methyl}-2-phenylcyclopropanecarboxamide]",–,–,–,113 nM,–,–,–,22 nM,3.3 nM,–,1.7 nM
COc1cncc(NC(=O)[C@@H]2C[C@@]2(COc2cnc(C)nc2C)c2ccccc2)c1 [Example 61],–,–,–,> 667 nM,–,–,–,874 nM,16 nM,–,26 nM
Cc1ncc(OC[C@@]2(c3ccccc3)C[C@H]2C(=O)Nc2ccccn2)c(C)n1 [Example 65],–,81 nM,–,> 667 nM,60 nM,–,–,1030 nM,–,–,–
Cc1ncc(OC[C@@]2(c3ccccc3)C[C@H]2C(=O)Nc2cccnc2)c(C)n1 [Example 66],–,–,–,> 667 nM,–,–,–,398 nM,50 nM,–,34 nM
